Assay results published in US9440957B2, “Compounds and compositions for modulating EGFR Activity” (Novartis AG, priority 2012, dated 2016).
Where two headings read alike, the source gives them in different places.

What was measured:
EGFR(L858R/T790M) = target: T1, EGFR(L858R/T790M) (Homo sapiens, UniProt P00533, L858R/T790M); assay: EGFR biochemical assay (HTRF), IC50 determinations
T1 construct: purchased from Carna (GST-a.a. 669-1210)
How it was run: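 HTRF kinase reaction with biotin-TK peptide at room temperature, quenched with EDTA at 60 min and detected with PT66K/SAXL after 1 h. Without preincubation, enzyme starts the reaction with compound, ATP and peptide present. With preincubation, compound, enzyme and peptide sit at room temperature for a set time before ATP is added.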

[1] = target: human EGFR WT (NIH/3T3 cells, EGF-induced) (Homo sapiens, UniProt P00533); assay: EGFR target modulation in engineered NIH/3T3 cell lines (phospho-EGFR Y1068 AlphaLISA), EGFR WT; assay type: cell-based; settings: engineered NIH/3T3 cells, read-out: NIH3T3 IC50 (μM) EGFR (WT)
human EGFR WT (NIH/3T3 cells, EGF-induced), sequence (P00533 25-1210): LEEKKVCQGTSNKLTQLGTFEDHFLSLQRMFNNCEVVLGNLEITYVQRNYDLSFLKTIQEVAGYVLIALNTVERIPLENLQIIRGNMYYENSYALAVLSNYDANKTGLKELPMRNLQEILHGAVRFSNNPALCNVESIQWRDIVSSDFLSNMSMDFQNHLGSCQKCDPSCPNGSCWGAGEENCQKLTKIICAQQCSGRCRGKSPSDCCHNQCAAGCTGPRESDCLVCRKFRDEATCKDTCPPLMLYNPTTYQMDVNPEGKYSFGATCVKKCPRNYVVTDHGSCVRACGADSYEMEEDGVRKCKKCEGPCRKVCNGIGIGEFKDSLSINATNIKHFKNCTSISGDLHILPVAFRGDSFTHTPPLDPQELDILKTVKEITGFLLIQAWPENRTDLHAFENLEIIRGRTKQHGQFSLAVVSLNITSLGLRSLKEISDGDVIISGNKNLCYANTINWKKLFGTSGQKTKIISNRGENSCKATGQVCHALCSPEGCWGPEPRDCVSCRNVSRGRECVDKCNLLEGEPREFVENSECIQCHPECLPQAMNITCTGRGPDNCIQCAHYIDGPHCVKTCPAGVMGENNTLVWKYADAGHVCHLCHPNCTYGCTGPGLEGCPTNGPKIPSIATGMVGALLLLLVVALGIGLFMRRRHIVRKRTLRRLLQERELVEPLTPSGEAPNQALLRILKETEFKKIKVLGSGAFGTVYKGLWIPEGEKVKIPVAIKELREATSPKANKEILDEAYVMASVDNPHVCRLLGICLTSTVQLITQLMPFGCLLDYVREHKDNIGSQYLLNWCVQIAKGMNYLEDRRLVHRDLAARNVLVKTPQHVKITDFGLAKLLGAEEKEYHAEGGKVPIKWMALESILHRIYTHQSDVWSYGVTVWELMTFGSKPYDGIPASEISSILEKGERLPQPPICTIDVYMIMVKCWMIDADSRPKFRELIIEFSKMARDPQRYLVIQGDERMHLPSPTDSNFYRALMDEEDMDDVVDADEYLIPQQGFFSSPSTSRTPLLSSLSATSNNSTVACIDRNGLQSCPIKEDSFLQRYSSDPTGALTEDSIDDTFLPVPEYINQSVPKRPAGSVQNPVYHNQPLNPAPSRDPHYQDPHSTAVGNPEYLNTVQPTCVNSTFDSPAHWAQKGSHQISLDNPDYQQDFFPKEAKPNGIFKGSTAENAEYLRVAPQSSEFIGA
How it was run: (§1)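 Engineered NIH/3T3 cells expressing EGFR variants treated 3 h at 37 °C with 12-point 1:3 compound series (top stock 10 μM); only WT cells stimulated with 50 ng/ml EGF for 5 min before lysis. Phospho-Y1068 measured by AlphaLISA with total-EGFR antibody; IC50 from non-linear fitting.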

[2] = target: human EGFR L858R (NIH/3T3 cells) (Homo sapiens, UniProt P00533, L858R); assay: EGFR target modulation in engineered NIH/3T3 cell lines (phospho-EGFR Y1068 AlphaLISA), EGFR L858R; assay type: cell-based; settings: engineered NIH/3T3 cells, read-out: NIH3T3 IC50 (μM) EGFR (L858R)
How it was run: as §1

[3] = target: human EGFR L858R/T790M (NIH/3T3 cells) (Homo sapiens, UniProt P00533, L858R/T790M); assay: EGFR target modulation in engineered NIH/3T3 cell lines (phospho-EGFR Y1068 AlphaLISA), EGFR L858R/T790M; assay type: cell-based; settings: engineered NIH/3T3 cells, read-out: NIH3T3 IC50 (μM) EGFR (L858R/T790M)
human EGFR L858R/T790M (NIH/3T3 cells), sequence (P00533 25-1210 T790M/L858R): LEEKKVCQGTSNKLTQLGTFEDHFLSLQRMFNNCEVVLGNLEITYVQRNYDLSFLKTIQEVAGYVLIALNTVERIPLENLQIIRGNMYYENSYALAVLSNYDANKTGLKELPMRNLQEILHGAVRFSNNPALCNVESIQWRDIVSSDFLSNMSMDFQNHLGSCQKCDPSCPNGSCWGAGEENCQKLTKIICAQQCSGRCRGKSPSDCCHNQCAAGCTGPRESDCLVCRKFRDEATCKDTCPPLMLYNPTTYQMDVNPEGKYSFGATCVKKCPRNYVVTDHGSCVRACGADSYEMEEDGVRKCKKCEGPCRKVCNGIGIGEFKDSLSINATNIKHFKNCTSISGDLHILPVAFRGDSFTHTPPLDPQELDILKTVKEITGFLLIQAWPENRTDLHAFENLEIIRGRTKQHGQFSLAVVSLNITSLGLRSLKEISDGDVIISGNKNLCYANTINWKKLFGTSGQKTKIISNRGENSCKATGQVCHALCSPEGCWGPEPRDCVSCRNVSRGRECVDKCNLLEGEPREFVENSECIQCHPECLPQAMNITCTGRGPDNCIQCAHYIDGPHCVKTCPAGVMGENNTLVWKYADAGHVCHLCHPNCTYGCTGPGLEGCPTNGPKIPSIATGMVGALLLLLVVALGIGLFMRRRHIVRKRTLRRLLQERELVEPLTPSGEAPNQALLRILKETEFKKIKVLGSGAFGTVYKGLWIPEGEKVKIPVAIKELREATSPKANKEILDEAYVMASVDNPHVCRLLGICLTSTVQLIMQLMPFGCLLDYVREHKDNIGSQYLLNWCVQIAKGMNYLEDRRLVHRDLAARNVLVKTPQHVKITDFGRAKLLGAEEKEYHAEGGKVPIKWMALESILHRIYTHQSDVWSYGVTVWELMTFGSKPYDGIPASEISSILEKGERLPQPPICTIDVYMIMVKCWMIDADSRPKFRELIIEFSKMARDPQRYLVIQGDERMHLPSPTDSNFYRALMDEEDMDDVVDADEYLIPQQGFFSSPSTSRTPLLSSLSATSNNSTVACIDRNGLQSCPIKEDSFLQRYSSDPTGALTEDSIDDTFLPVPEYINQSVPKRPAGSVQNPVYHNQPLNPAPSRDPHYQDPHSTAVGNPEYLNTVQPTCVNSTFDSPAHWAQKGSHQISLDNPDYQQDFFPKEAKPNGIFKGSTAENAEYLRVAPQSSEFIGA
How it was run: as §1

H1975 (EGFR L858/T790M) = H1975 (EGFR L858/T790M) (Homo sapiens, UniProt P00533, L858R/T790M); assay: EGFR target modulation in H1975 cell line (phospho-EGFR Y1173 ELISA); assay type: cell-based
H1975 (EGFR L858/T790M), sequence (P00533 25-1210 T790M/L858R): as above
Method: (§2) EGFR Target Modulation in H1975, H3255 and HCC827 Cell Lines Tissue Culture. Cells were maintained in 10% FBS/RPMI supplemented with 100 μg/ml Penicillin/Streptomycin (Hyclone #SH30236.01). […] The cells were allowed to incubate overnight in a 37° C., 5% CO2 humidified tissue culture incubator. […] The serial diluted compounds were transferred to the plate containing cells by using a 50 nl Pin Head device (Perkin Elmer) and the cells were placed back in the incubator for 3 hours. Phospho-EGFR ([…]) Target Modulation Assay. The media was reduced to 20 ul using a Bio-Tek ELx 405 SelectTM plate washer. […] The plates were shaken at 4° C. for 20 minutes. An aliquot of 25 ul from each well was transferred to pEGFR(Y1173) ELISA plates for analysis. Phospho-EGFR ([…]) ELISA. Solid white high-binding ELISA plates (Greiner #781074) were coated with 5 ug/ml anti-EGFR capture antibody (R&D Systems #AF231) overnight in 50 mM carbonate/bicarbonate pH 9.5 buffer. Plates were blocked with 1% BSA (Sigma #A7030) in PBS for 1 hour at room temperature. Wash steps were carried out with a Bio-Tek ELx405 SelectTM using 4 cycles of 100 ul TBS-T (20 mM Tris, 137 mM NaCl, 0.05% Tween-20) per well. […] Lysis was allowed to occur for 20 minutes on ice. A 25 ul aliquot was added to each well of the blocked ELISA plate and incubated overnight at 4° C. with gentle shaking. […] After washing, 1:2,000 anti-rabbit-HRP (Cell Signaling #7074) in 0.2% BSA/TBS-T was added and incubated for 1 hour at room temperature. Chemiluminescent detection was carried out with SuperSignal ELISA Pico substrate (ThermoScientific #37069). Signal was read on EnVision plate reader using built-in UltraLUM setting. Data Analysis. Control cells treated with EGF were set to 100% maximum response. […] With these parameters, the IC50's for each compound in each cell line was calculated using non-linear curve fitting analysis.

H3255 (EGFR L858R) = H3255 (EGFR L858R) (Homo sapiens, UniProt P00533, L858R); assay: EGFR target modulation in H3255 cell line (phospho-EGFR Y1173 ELISA); assay type: cell-based
Method: as §2

HEKn (EGFR WT) = HEKn (EGFR WT) (Homo sapiens, UniProt P00533); assay: EGFR target modulation in HEKn (EGFR-WT) cell line (phospho-EGFR Y1173 ELISA); assay type: cell-based; settings: value outside parentheses
HEKn (EGFR WT), sequence (P00533 25-1210): as the sequence (P00533 25-1210) above
Method: EGFR Target Modulation in HEKn (EGFR-WT) Cell Line Tissue Culture. Human neonatal epithelial keratinocytes (Invitrogen #C-001-5C) were maintained in EpiLife media (Invitrogen #[…]) supplemented with growth factors (Invitrogen #S-001-5). Cells were harvested with 0.05% Trypsin/EDTA (Hyclone #SH30236.01) and quenched with 5% FBS/EpiLife media. […] The serial diluted compounds were transferred to the plate containing cells by using a 50 nl Pin Head device (Perkin Elmer) and the cells were placed back in the incubator for 3 hours. […] Phospho-EGFR (Y1173) ELISA. Solid white high-binding ELISA plates (Greiner #781074) were coated with 5 ug/ml anti-EGFR capture antibody (R&D Systems #AF231) overnight in 50 mM carbonate/bicarbonate pH 9.5 buffer. […] Wash steps were carried out with a Bio-Tek ELx405 SelectTM using 4 cycles of 100 ul TBS-T (20 mM Tris, 137 mM NaCl, 0.05% Tween-20) per well. […] Lysis was allowed to occur for 20 minutes on ice. A 25 ul aliquot was added to each well of the blocked ELISA plate and incubated overnight at 4° C. with gentle shaking. […] After washing, 1:2,000 anti-rabbit-HRP (Cell Signaling #7074) in 0.2% BSA/TBS-T was added and incubated for 1 hour at room temperature. Chemiluminescent detection was carried out with SuperSignal ELISA Pico substrate (ThermoScientific #37069). Signal was read on EnVision plate reader using built-in UltraLUM setting. Data Analysis. Control cells treated with EGF were set to 100% maximum response. […] With these parameters, the IC50's for each compound in each cell line was calculated using non-linear curve fitting analysis.

[4] = EGFR (L858R/T790M) with 90 min pre-incubation, read-out: IC50 (μM) Column B
[5] = EGFR (L858R/T790M) with no pre-incubation, read-out: IC50 (μM) Column A

| SMILES | IC50 (EGFR(L858R/T790M); [4]) [µM] | IC50 (EGFR(L858R/T790M); [5]) [µM] | IC50 [1] [µM] | IC50 [2] [µM] | IC50 [3] [µM] | IC50 (H1975 (EGFR L858/T790M)) [nM] | IC50 (H3255 (EGFR L858R)) [nM] | IC50 (HEKn (EGFR WT)) [nM] |
| --- | --- | --- | --- | --- | --- | --- | --- | --- |
| COc1cc(C(=O)Nc2nc3cccc(C)c3n2C2CCCCN(C(=O)/C=C/CN(C)C)C2)ccn1 (centres unmarked) [Example 17-48] | < 0.001 | 0.007 | 0.122 | 0.005 | 0.004 | 10 | 7 | 380 |
| Cc1cccc2nc(NC(=O)c3cccc(-n4cnnn4)c3)n(C3CCCCN(C(=O)/C=C/CN(C)C)C3)c12 (centres unmarked) [Example 17-53] | < 0.001 | 0.002 | 0.058 | 0.003 | 0.002 | 2 | 4 | 261 |
| Cc1nccc(C(=O)Nc2nc3cccc(C)c3n2C2CCCCN(C(=O)/C=C/CN(C)C)C2)n1 (centres unmarked) [Example 17-54] | 0.005 | 0.09 | 0.56 | 0.022 | 0.041 | 78 | 81 | 4900 |
| Cc1cccc2nc(NC(=O)c3cncc(C(F)(F)F)c3)n([C@@H]3CCCCN(C(=O)/C=C/CN(C)C)C3)c12 [Example 17-67] | < 0.001 | 0.003 | 0.05 | 0.004 | 0.001 | 2 | 15 | 249 |
| Cc1cccc2nc(NC(=O)c3cncc(F)c3)n([C@@H]3CCCCN(C(=O)/C=C/CN(C)C)C3)c12 [Example 17-69] | < 0.001 | 0.002 | 0.02 | 0.001 | < 0.001 | 1 | 6 | 71 |
| COc1cc(C(=O)Nc2nc3cccc(C)c3n2[C@@H]2CCCCN(C(=O)/C=C/CN(C)C)C2)ccn1 [Example 17-71] | < 0.001 | 0.002 | 0.029 | 0.002 | 0.002 | 2 | 3 | 134 |
| COc1cc(C(=O)Nc2nc3cccc(C)c3n2[C@@H]2CCCCN(C(=O)/C=C/CN(C)C)C2)cc(Cl)n1 [Example 17-75] | < 0.001 | 0.017 | 0.218 | 0.025 | 0.007 | 26 | 85 | 3140 |
| Cc1cccc2nc(NC(=O)c3ccnc(-c4ccccc4)c3)n([C@@H]3CCCCN(C(=O)/C=C/CN(C)C)C3)c12 [Example 17-76] | < 0.001 | < 0.001 | 0.004 | < 0.001 | < 0.001 | < 1 | 1 | 14 |
| C=CC(=O)N1CCCC[C@@H](n2c(NC(=O)c3cnnc(C)c3)nc3cccc(C)c32)C1 [Example 17-81] | < 0.001 | 0.002 | 0.067 | 0.003 | 0.002 | 2 | 4 | 162 |

Now from value to molecule:

| IC50 (EGFR(L858R/T790M); [4]) [µM] | IC50 (EGFR(L858R/T790M); [5]) [µM] | IC50 [1] [µM] | IC50 [2] [µM] | IC50 [3] [µM] | IC50 (H1975 (EGFR L858/T790M)) [nM] | IC50 (H3255 (EGFR L858R)) [nM] | IC50 (HEKn (EGFR WT)) [nM] | SMILES |
| --- | --- | --- | --- | --- | --- | --- | --- | --- |
| < 0.001 | 0.002 | 0.103 | 0.003 | < 0.001 | 2 | 5 | 320 | Cc1cccc2nc(NC(=O)c3cccc(S(C)(=O)=O)c3)n(C3CCCCN(C(=O)/C=C/CN(C)C)C3)c12 (centres unmarked) [Example 17-52] |
| < 0.001 | 0.005 | 0.026 | 0.002 | 0.002 | 3 | 9 | 154 | Cc1cccc2nc(NC(=O)c3ccnc(F)c3)n(C3CCCCN(C(=O)/C=C/CN(C)C)C3)c12 (centres unmarked) [Example 17-58] |
| < 0.001 | 0.003 | 0.023 | 0.002 | 0.001 | 2 | 8 | 203 | Cc1cncc(C(=O)Nc2nc3cccc(C)c3n2[C@@H]2CCCCN(C(=O)/C=C/CN(C)C)C2)c1 [Example 17-68] |
| < 0.001 | < 0.001 | 0.035 | 0.001 | < 0.001 | < 1 | 7 | 185 | Cc1cccc2nc(NC(=O)c3cncc(-n4cccc4)c3)n([C@@H]3CCCCN(C(=O)/C=C/CN(C)C)C3)c12 [Example 17-70] |
| < 0.001 | 0.004 | 0.063 | 0.004 | 0.001 | 3 | 12 | 220 | Cc1cc(C(=O)Nc2nc3cccc(C)c3n2[C@@H]2CCCCN(C(=O)/C=C/CN(C)C)C2)cc(C)n1 [Example 17-72] |
| < 0.001 | 0.003 | 0.076 | 0.004 | 0.002 | 2 | 11 | 261 | Cc1cc(C(=O)Nc2nc3cccc(C)c3n2[C@@H]2CCCCN(C(=O)/C=C/CN(C)C)C2)cc(Cl)n1 [Example 17-74] |
| < 0.001 | 0.003 | 0.008 | 0.001 | 0.001 | 2 | 1 | 24 | Cc1cccc2nc(NC(=O)c3ccc(Cl)nc3)n([C@@H]3CCCCN(C(=O)/C=C/CN(C)C)C3)c12 [Example 17-77] |
| < 0.001 | 0.006 | 0.152 | 0.005 | 0.006 | 134 | 37 | 1680 | Cc1cccc2nc(NC(=O)c3cnc(Cl)c(Cl)c3)n([C@@H]3CCCCN(C(=O)/C=C/CN(C)C)C3)c12 [Example 17-78] |
| < 0.001 | 0.005 | 0.062 | 0.005 | 0.002 | 2 | 7 | 176 | COc1cncc(C(=O)Nc2nc3cccc(C)c3n2[C@@H]2CCCCN(C(=O)/C=C/CN(C)C)C2)c1 [Example 17-79] |
| < 0.001 | < 0.001 | 0.002 | < 0.001 | < 0.001 | < 1 | < 1 | 4 | Cc1ccccc1-c1cc(C(=O)Nc2nc3cccc(C)c3n2[C@@H]2CCCCN(C(=O)/C=C/CN(C)C)C2)ccn1 [Example 17-80] |
